# Laboratory results from ChEMBL document CHEMBL1156824, “Physicochemical space for optimum oral bioavailability: contribution of human intestinal absorption and first-pass elimination” (J Med Chem, 2010).
# Organism: Homo sapiens
# Assay: Hepatic clearance in human
# Conditions: in vivo
row,Structure (SMILES),CL
1,Cc1[nH]c(=O)c(C#N)cc1-c1ccncc1 [MILRINONE],1.2 mL/min/kg
2,CN1C(=O)C(O)N=C(c2ccccc2Cl)c2cc(Cl)ccc21 (stereo not given) [LORMETAZEPAM],4 mL/min/kg
3,CN1CCN(C(=O)OC2c3nccnc3C(=O)N2c2ccc(Cl)cn2)CC1 (stereo not given) [ZOPICLONE],3.2 mL/min/kg
4,CC(C)(C)NC(=O)[C@H]1CC[C@H]2[C@@H]3CC=C4C=C(C(=O)O)CC[C@]4(C)[C@H]3CC[C@]12C [EPRISTERIDE],0.3 mL/min/kg
5,C[C@](N)(Cc1ccc(O)c(O)c1)C(=O)O [METHYLDOPA],1.4 mL/min/kg
6,C[C@H]1O[C@@H](n2cc(F)c(=O)[nH]c2=O)[C@H](O)[C@@H]1O [DOXIFLURIDINE],6.7 mL/min/kg
7,CC(C)NCC(O)COc1ccc(COCCOC(C)C)cc1 (stereo not given) [BISOPROLOL],1.4 mL/min/kg
8,CC1=C(C(=O)O)N2C(=O)[C@@H](NC(=O)[C@H](N)c3ccc(O)cc3)[C@H]2SC1 [CEFADROXIL],0.2 mL/min/kg
9,N[C@@H]1CN(c2c(F)cc3c(=O)c(C(=O)O)cn([C@@H]4C[C@@H]4F)c3c2Cl)CC12CC2 [SITAFLOXACIN ANHYDROUS],0.9 mL/min/kg
10,CC1=C(C(=O)O)N2C(=O)[C@@H](NC(=O)[C@H](N)C3=CCC=CC3)[C@H]2SC1 [CEPHRADINE],0.2 mL/min/kg
11,CCCC1O[C@@H]2C[C@H]3[C@@H]4CCC5=CC(=O)C=C[C@]5(C)[C@H]4[C@@H](O)C[C@]3(C)[C@]2(C(=O)CO)O1 (stereo not given in full) [BUDESONIDE],19 mL/min/kg
12,Cc1onc(-c2c(Cl)cccc2Cl)c1C(=O)N[C@@H]1C(=O)N2[C@@H]1SC(C)(C)[C@@H]2C(=O)O [DICLOXACILLIN],0.8 mL/min/kg
13,CN(C)C(=O)Oc1ccc[n+](C)c1 [PYRIDOSTIGMINE],2.4 mL/min/kg
14,CO/N=C(\C(=O)N[C@@H]1C(=O)N2C(C(=O)O)=C(COC(N)=O)CS[C@H]12)c1ccco1 [CEFUROXIME],0.1 mL/min/kg
15,CC[C@H](C)C(=O)O[C@H]1C[C@H](O)C=C2C=C[C@H](C)[C@H](CC[C@@H](O)C[C@@H](O)CC(=O)O)[C@H]21 [PRAVASTATIN],7.7 mL/min/kg
16,O=C(O)[C@H]1/C(=C/CO)O[C@@H]2CC(=O)N21 [CLAVULANIC ACID],1.8 mL/min/kg
17,CC(C)NCC(O)COc1cccc2ccccc12 (stereo not given) [PROPRANOLOL],10.8 mL/min/kg
18,CCCCc1ncc(/C=C(\Cc2cccs2)C(=O)O)n1Cc1ccc(C(=O)O)cc1 [EPROSARTAN],1.2 mL/min/kg
19,CC(C)(C)NCC(O)COc1ccc(NC(=O)NC2CCCCC2)cc1 (stereo not given) [TALINOLOL],2.3 mL/min/kg
20,Cc1ccc(O)c([C@H](CCN(C(C)C)C(C)C)c2ccccc2)c1 [TOLTERODINE],8.4 mL/min/kg
21,C=CCc1ccccc1OCC(O)CNC(C)C (stereo not given) [ALPRENOLOL],14.4 mL/min/kg
22,CCC(CC)O[C@@H]1C=C(C(=O)O)C[C@H](N)[C@H]1NC(C)=O [OSELTAMIVIR CARBOXYLATE],0.3 mL/min/kg
23,C#CCN(C)[C@H](C)Cc1ccccc1 [SELEGILINE],19.8 mL/min/kg
24,CN1C2CCCC1CC(NC(=O)c1nn(C)c3ccccc13)C2 (stereo not given) [GRANISETRON],8.1 mL/min/kg
25,CC(=O)Nc1ccc(OCC(O)CNC(C)C)cc1 (stereo not given) [PRACTOLOL],0.3 mL/min/kg

row,Structure (SMILES),CL
1,Nc1nc2c(c(=O)[nH]1)N(C=O)C(CNc1ccc(C(=O)N[C@@H](CCC(=O)O)C(=O)O)cc1)CN2 (stereo not given in full) [LEUCOVORIN],4.5 mL/min/kg
2,NC1CCN(c2c(F)cc3c(=O)c(C(=O)O)cn(C4CC4)c3c2Cl)C1 (stereo not given) [CLINAFLOXACIN],1.5 mL/min/kg
3,COC(=O)C1=C(C)NC(C)=C(C(=O)OCC(C)C)C1c1ccccc1[N+](=O)[O-] (stereo not given) [NISOLDIPINE],15 mL/min/kg
4,CC(=O)NC[C@H]1CN(c2ccc(N3CCOCC3)c(F)c2)C(=O)O1 [LINEZOLID],1.2 mL/min/kg
5,CCC(C)n1ncn(-c2ccc(N3CCN(c4ccc(OCC5COC(Cn6cncn6)(c6ccc(Cl)cc6Cl)O5)cc4)CC3)cc2)c1=O (stereo not given) [ITRACONAZOLE],5.1 mL/min/kg
6,C[C@@H]1O[C@@H]1P(=O)(O)O [FOSFOMYCIN],0.02 mL/min/kg
7,N=C(N)c1ccc(CNC(=O)[C@@H]2CCN2C(=O)[C@H](NCC(=O)O)C2CCCCC2)cc1,0.3 mL/min/kg
8,Cc1ccccc1N1C(=O)c2cc(S(N)(=O)=O)c(Cl)cc2NC1C (stereo not given) [METOLAZONE],0.3 mL/min/kg
9,CC1(C)S[C@@H]2[C@H](NC(=O)COc3ccccc3)C(=O)N2[C@H]1C(=O)O [PENICILLIN V],5.1 mL/min/kg
10,COc1c(N2CCNC(C)C2)c(F)cc2c(=O)c(C(=O)O)cn(C3CC3)c12 (stereo not given) [GATIFLOXACIN],0.5 mL/min/kg
11,COc1ccc(Cc2nccc3cc(OC)c(OC)cc23)cc1OC [PAPAVERINE],11 mL/min/kg
12,CC(C)(C)NC[C@H](O)COc1nsnc1N1CCOCC1 [TIMOLOL],7.1 mL/min/kg
13,CC1COc2c(N3CCN(C)CC3)c(F)cc3c(=O)c(C(=O)O)cn1c23 (stereo not given) [OFLOXACIN],0.8 mL/min/kg
14,CCOc1ccc(/C=C2\NCCc3cc(OCC)c(OCC)cc32)cc1OCC [DROTAVERINE],3.5 mL/min/kg
15,CN(Cc1cnc2nc(N)nc(N)c2n1)c1ccc(C(=O)N[C@@H](CCC(=O)O)C(=O)O)cc1 [METHOTREXATE],0.4 mL/min/kg
16,CN(C)CCc1c[nH]c2ccc(C[C@H]3COC(=O)N3)cc12 [ZOLMITRIPTAN],4.5 mL/min/kg
17,O=c1[nH]cnc2c1ncn2[C@H]1CC[C@@H](CO)O1 [DIDANOSINE],4.2 mL/min/kg
18,COCCOC(=O)C1=C(C)NC(C)=C(C(=O)OC(C)C)C1c1cccc([N+](=O)[O-])c1 (stereo not given) [NIMODIPINE],15 mL/min/kg
19,COCCCOc1ccnc(C[S+]([O-])c2nc3ccccc3[nH]2)c1C (stereo not given) [RABEPRAZOLE],4 mL/min/kg
20,COc1ccccc1OCCNCC(O)COc1cccc2[nH]c3ccccc3c12 (stereo not given) [CARVEDILOL],7.7 mL/min/kg
21,CC(C)(C)NCC(O)c1cc(O)cc(O)c1 (stereo not given) [TERBUTALINE],1.2 mL/min/kg
22,CN(CCOc1ccc(CC2SC(=O)NC2=O)cc1)c1ccccn1 (stereo not given) [ROSIGLITAZONE],0.7 mL/min/kg
23,c1ccc(C2(c3ccccc3)CC2C2=NCCN2)cc1 (stereo not given) [CIFENLINE],4.4 mL/min/kg
24,CC1(C)S[C@@H]2[C@H](NC(=O)[C@H](N)c3ccc(O)cc3)C(=O)N2[C@H]1C(=O)O [AMOXICILLIN],1.4 mL/min/kg
25,N[C@@H](CC(=O)N1CCn2c(nnc2C(F)(F)F)C1)Cc1cc(F)c(F)cc1F [SITAGLIPTIN],1.3 mL/min/kg

row,Structure (SMILES),CL
1,CCN(CC)C(=O)/C(C#N)=C/c1cc(O)c(O)c([N+](=O)[O-])c1 [ENTACAPONE],5.3 mL/min/kg
2,COc1nc(C)nc(Cl)c1N=C1NCCN1 [MOXONIDINE],3.5 mL/min/kg
3,CC(C)[C@H]1CC[C@H](C(=O)N[C@H](Cc2ccccc2)C(=O)O)CC1 [NATEGLINIDE],1.7 mL/min/kg
4,CN[C@H](CC(C)C)C(=O)N[C@H]1C(=O)N[C@@H](CC(N)=O)C(=O)N[C@H]2C(=O)N[C@H]3C(=O)N[C@H](C(=O)N[C@H](C(=O)O)c4cc(O)cc(O)c4-c4cc3ccc4O)[C@H](O)c3ccc(c(Cl)c3)Oc3cc2cc(c3O[C@@H]2O[C@H](CO)[C@@H](O)[C@H](O)[C@H]2O[C@H]2C[C@](C)(N)[C@H](O)[C@H](C)O2)Oc2ccc(cc2Cl)[C@H]1O [VANCOMYCIN],0.3 mL/min/kg
5,C[C@]12CC[C@@H]3c4ccc(OC(=O)N(CCCl)CCCl)cc4CC[C@H]3[C@@H]1CC[C@@H]2OP(=O)(O)O [ESTRAMUSTINE PHOSPHATE],0.9 mL/min/kg
6,Cc1cccc(C)c1NC(=O)C(C)N (stereo not given) [TOCAINIDE],1.4 mL/min/kg
7,O=P(O)(O)C(O)(Cc1cccnc1)P(=O)(O)O [RISEDRONIC ACID],0.2 mL/min/kg
8,CCN(CC)CCNC(=O)c1ccc(NS(C)(=O)=O)cc1 [SEMATILIDE],0.2 mL/min/kg
9,CNS(=O)(=O)CCc1ccc2[nH]cc(C3CCN(C)CC3)c2c1,3.5 mL/min/kg
10,CC[C@]1(O)C[C@@H]2CN(CCc3c([nH]c4ccccc34)[C@@](C(=O)OC)(c3cc4c(cc3OC)N(C)[C@H]3[C@@](O)(C(=O)OC)[C@H](OC(C)=O)[C@]5(CC)C=CCN6CC[C@]43[C@@H]65)C2)C1 [VINBLASTINE],0.5 mL/min/kg
11,C[C@H](/C=C/[C@H](C)C(C)(C)O)[C@H]1CC[C@H]2/C(=C/C=C3C[C@@H](O)C[C@H](O)C3)CCC[C@]12C [PARICALCITOL],0.9 mL/min/kg
12,CC1(C)S[C@@H]2[C@H](NC(=O)[C@H](N)c3ccccc3)C(=O)N2[C@H]1C(=O)O [AMPICILLIN],1.6 mL/min/kg
13,CN(C)[C@@H]1C(O)=C(C(N)=O)C(=O)[C@@]2(O)C(O)=C3C(=O)c4c(O)cccc4[C@@](C)(O)[C@H]3C[C@@H]12 [TETRACYCLINE],0.6 mL/min/kg
14,C=CC[C@@H]1/C=C(\C)C[C@H](C)C[C@H](OC)[C@H]2O[C@@](O)(C(=O)C(=O)N3CCCC[C@H]3C(=O)O[C@H](/C(C)=C/[C@@H]3CC[C@@H](O)[C@H](OC)C3)[C@H](C)[C@@H](O)CC1=O)[C@H](C)C[C@@H]2OC [TACROLIMUS ANHYDROUS],0.7 mL/min/kg
15,CCN(CC)CCNC(=O)c1cc(Cl)c(N)cc1OC [METOCLOPRAMIDE],4.6 mL/min/kg
16,Nc1ncnc2c1ncn2CCOCP(=O)(O)O [ADEFOVIR],0.4 mL/min/kg
17,CCNCC(O)c1cccc(O)c1 (stereo not given) [ETILEFRINE],10 mL/min/kg
18,COc1cc(OC)c(C(=O)CCCN2CCCC2)c(OC)c1 [BUFLOMEDIL],4.3 mL/min/kg
19,N=C(N)NC(=O)Cc1c(Cl)cccc1Cl [GUANFACINE],2.9 mL/min/kg
20,Nc1ccn(C[C@@H](CO)OCP(=O)(O)O)c(=O)n1.O.O [CIDOFOVIR],0.3 mL/min/kg
21,COc1ccc([C@@H]2Sc3ccccc3N(CCN(C)C)C(=O)[C@@H]2OC(C)=O)cc1 [DILTIAZEM],3.8 mL/min/kg
22,CCN(CC)CCCC(C)Nc1ccnc2cc(Cl)ccc12 (stereo not given) [CHLOROQUINE],1.8 mL/min/kg
23,CO[C@H]1/C=C/O[C@@]2(C)Oc3c(C)c(O)c4c(O)c(c(/C=N/N5CCN(C)CC5)c(O)c4c3C2=O)NC(=O)/C(C)=C\C=C\[C@H](C)[C@H](O)[C@@H](C)[C@@H](O)[C@@H](C)[C@H](OC(C)=O)[C@@H]1C [RIFAMPIN],1.3 mL/min/kg
24,O=C1Nc2ccc(Cl)cc2C(c2ccccc2Cl)=NC1O (stereo not given) [LORAZEPAM],1 mL/min/kg
25,CN[C@@H]1CCc2[nH]c3ccc(C(N)=O)cc3c2C1 [FROVATRIPTAN],1.5 mL/min/kg
